Reference: patent US11254663B2 (BRISTOL-MYERS SQUIBB COMPANY, priority 2019, dated 2022)
pEC50: −log10 of the molar value.

Each molecule was assayed against FXR (Homo sapiens (Human), UniProt Q96RI1) (assay: transient human FXR/Gal4-luciferase reporter assay). Conditions: not given.
Sequence of FXR (Q96RI1 262-486): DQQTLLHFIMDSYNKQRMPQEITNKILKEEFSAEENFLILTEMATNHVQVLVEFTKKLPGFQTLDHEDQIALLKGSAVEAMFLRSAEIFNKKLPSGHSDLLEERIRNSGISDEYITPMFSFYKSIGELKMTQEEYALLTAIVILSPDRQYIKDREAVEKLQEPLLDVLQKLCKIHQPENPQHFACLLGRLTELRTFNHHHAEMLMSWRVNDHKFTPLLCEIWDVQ
Assay type: cell-based
How it was run: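 HEK293 cells stably carrying a 5×Gal4 response element–firefly luciferase reporter were transiently transfected overnight with a Gal4 DBD–human FXR LBD fusion plasmid. Compound was added in DMSO and cells were incubated overnight at 37 °C, 5% CO2. Activity was read as Steady-Glo luminescence.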
For `CS(=O)(=O)Nc1ccc(-c2cccc(N(CC34CCC(c5noc(C(F)F)n5)(CC3)CC4)C(=O)C34CC(F)(C3)C4)c2)cc1` [Example 460, N-((4-(5-(difluoromethyl)-1,2,4-oxadiazol-3-yl)bicyclo[2.2.2]octan-1-yl)methyl)-3-fluoro-N-(4′-(methylsulfonamido)-[1,1′-biphenyl]-3-yl)bicyclo[1.1.1]pentane-1-carboxamide], the pEC50 was 6.47. For `CCOc1ccc(-c2cccc(N(CC34CCC(c5noc(C(F)F)n5)(CC3)CC4)C(=O)C34CC(F)(C3)C4)c2)cc1` [Example 461, N-((4-(5-(difluoromethyl)-1,2,4-oxadiazol-3-yl)bicyclo[2.2.2]octan-1-yl)methyl)-N-(4′-ethoxy-[1,1′-biphenyl]-3-yl)-3-fluorobicyclo[1.1.1]pentane-1-carboxamide], the pEC50 was 6.22. In the case of `Cc1nc2ccc(-c3cccc(N(CC45CCC(c6noc(C(F)F)n6)(CC4)CC5)C(=O)C45CC(F)(C4)C5)c3)cc2s1` [Example 462, N-((4-(5-(difluoromethyl)-1,2,4-oxadiazol-3-yl)bicyclo[2.2.2]octan-1-yl)methyl)-3-fluoro-N-(3-(2-methylbenzo[d]thiazol-6-yl)phenyl)bicyclo[1.1.1]pentane-1-carboxamide], the pEC50 was 6.97. With `O=C(N(CC12CCC(c3noc(C(F)F)n3)(CC1)CC2)c1cccc(-c2cnc(C3CC3)nc2)c1)C12CC(F)(C1)C2` [Example 463, N-(3-(2-cyclopropylpyrimidin-5-yl)phenyl)-N-((4-(5-(difluoromethyl)-1,2,4-oxadiazol-3-yl)bicyclo[2.2.2]octan-1-yl)methyl)-3-fluorobicyclo[1.1.1]pentane-1-carboxamide] the pEC50 was 6.67. With `O=C(N(CC12CCC(c3noc(C(F)F)n3)(CC1)CC2)c1cccc(-c2cnc(C(F)(F)F)nc2)c1)C12CC(F)(C1)C2` [Example 464, N-((4-(5-(difluoromethyl)-1,2,4-oxadiazol-3-yl)bicyclo[2.2.2]octan-1-yl)methyl)-3-fluoro-N-(3-(2-(trifluoromethyl)pyrimidin-5-yl)phenyl)bicyclo[1.1.1]pentane-1-carboxamide] the pEC50 was 6.18. With `O=C(N(CC12CCC(c3noc(C(F)F)n3)(CC1)CC2)c1cccc(-c2ccc(OC(F)F)cc2)c1)C12CC(F)(C1)C2` [Example 465, N-(4′-(difluoromethoxy)-[1,1′-biphenyl]-3-yl)-N-((4-(5-(difluoromethyl)-1,2,4-oxadiazol-3-yl)bicyclo[2.2.2]octan-1-yl)methyl)-3-fluorobicyclo[1.1.1]pentane-1-carboxamide] the pEC50 was 6.74. Molecule `O=C(N(CC12CCC(c3nc(C(F)F)no3)(CC1)CC2)c1cccc(-c2cnc(C(F)(F)F)nc2)c1)C12CC(F)(C1)C2` [Example 467, N-((4-(3-(difluoromethyl)-1,2,4-oxadiazol-5-yl)bicyclo[2.2.2]octan-1-yl)methyl)-3-fluoro-N-(3-(2-(trifluoromethyl)pyrimidin-5-yl)phenyl)bicyclo[1.1.1]pentane-1-carboxamide] has a pEC50 of 5.68. In the case of `O=C(N(CC12CCC(c3nc(C(F)F)no3)(CC1)CC2)c1cccc(-c2ccc(OC(F)F)cc2)c1)C12CC(F)(C1)C2` [Example 468, N-(4′-(difluoromethoxy)-[1,1′-biphenyl]-3-yl)-N-((4-(3-(difluoromethyl)-1,2,4-oxadiazol-5-yl)bicyclo[2.2.2]octan-1-yl)methyl)-3-fluorobicyclo[1.1.1]pentane-1-carboxamide], the pEC50 was 6.74.

Same assay, conditions: Gal4-hFXR fusion construct, HEK293 reporter cells; response relative to 8 μM GW-4064
`CC(C)(C)c1nc(C23CCC(CN(C(=O)C45CC(F)(C4)C5)c4cccc(-c5ccc(NS(=O)(=O)C(F)(F)F)cc5)c4)(CC2)CC3)no1` [Example 446, N-((4-(5-(tert-butyl)-1,2,4-oxadiazol-3-yl)bicyclo[2.2.2]octan-1-yl)methyl)-3-fluoro-N-(4′-((trifluoromethyl)sulfonamido)-[1,1′-biphenyl]-3-yl)bicyclo[1.1.1]pentane-1-carboxamide] was tested, and the pEC50 was 6.65. In the case of `CC(C)(C)c1nc(C23CCC(CN(C(=O)C45CC(F)(C4)C5)c4cccc(-c5ccc6[nH]c(=O)oc6c5)c4)(CC2)CC3)no1` [Example 447, N-((4-(5-(tert-butyl)-1,2,4-oxadiazol-3-yl)bicyclo[2.2.2]octan-1-yl)methyl)-3-fluoro-N-(3-(2-oxo-2,3-dihydrobenzo[d]oxazol-6-yl)phenyl)bicyclo[1.1.1]pentane-1-carboxamide], the pEC50 was 7.06. Work on `CC(C)S(=O)(=O)Nc1ccc(-c2cccc(N(CC34CCC(c5noc(C(C)(C)C)n5)(CC3)CC4)C(=O)C34CC(F)(C3)C4)c2)cc1` [Example 448, N-((4-(5-(tert-butyl)-1,2,4-oxadiazol-3-yl)bicyclo[2.2.2]octan-1-yl)methyl)-3-fluoro-N-(4′-((1-methylethyl)sulfonamido)-[1,1′-biphenyl]-3-yl)bicyclo[1.1.1]pentane-1-carboxamide] yielded a pEC50 of 6.56. For `Cc1nc2ncc(-c3cccc(N(CC45CCC(c6noc(C(C)(C)C)n6)(CC4)CC5)C(=O)C45CC(F)(C4)C5)c3)cc2s1` [Example 449, N-((4-(5-(tert-butyl)-1,2,4-oxadiazol-3-yl)bicyclo[2.2.2]octan-1-yl)methyl)-3-fluoro-N-(3-(2-methylthiazolo[4,5-b]pyridin-6-yl)phenyl)bicyclo[1.1.1]pentane-1-carboxamide], the pEC50 was 7.01. `COc1cnc(-c2cccc(N(CC34CCC(c5noc(C(C)(C)C)n5)(CC3)CC4)C(=O)C34CC(F)(C3)C4)c2)nc1` [Example 450, N-((4-(5-(tert-butyl)-1,2,4-oxadiazol-3-yl)bicyclo[2.2.2]octan-1-yl)methyl)-3-fluoro-N-(3-(5-methoxypyrimidin-2-yl)phenyl)bicyclo[1.1.1]pentane-1-carboxamide] gave a pEC50 of 7.17. `CCOc1cnc(-c2cccc(N(CC34CCC(c5noc(C(C)(C)C)n5)(CC3)CC4)C(=O)C34CC(F)(C3)C4)c2)nc1` [Example 451, N-((4-(5-(tert-butyl)-1,2,4-oxadiazol-3-yl)bicyclo[2.2.2]octan-1-yl)methyl)-N-(3-(5-ethoxypyrimidin-2-yl)phenyl)-3-fluorobicyclo[1.1.1]pentane-1-carboxamide] gave a pEC50 of 7.33. In the case of `CC(C)(C)c1nc(C23CCC(CN(C(=O)C45CC(F)(C4)C5)c4cccc(-c5ncc(OC(F)F)cn5)c4)(CC2)CC3)no1` [Example 452, N-((4-(5-(tert-butyl)-1,2,4-oxadiazol-3-yl)bicyclo[2.2.2]octan-1-yl)methyl)-N-(3-(5-(difluoromethoxy)pyrimidin-2-yl)phenyl)-3-fluorobicyclo[1.1.1]pentane-1-carboxamide], the pEC50 was 7.77. For `CCc1cnc(-c2cccc(N(CC34CCC(c5noc(C(C)(C)C)n5)(CC3)CC4)C(=O)C34CC(F)(C3)C4)c2)nc1` [Example 453, N-((4-(5-(tert-butyl)-1,2,4-oxadiazol-3-yl)bicyclo[2.2.2]octan-1-yl)methyl)-N-(3-(5-ethylpyrimidin-2-yl)phenyl)-3-fluorobicyclo[1.1.1]pentane-1-carboxamide], the pEC50 was 7.47. Molecule `Cc1cnc(-c2cccc(N(CC34CCC(c5noc(C(C)(C)C)n5)(CC3)CC4)C(=O)C34CC(F)(C3)C4)c2)nc1` [Example 454, N-((4-(5-(tert-butyl)-1,2,4-oxadiazol-3-yl)bicyclo[2.2.2]octan-1-yl)methyl)-3-fluoro-N-(3-(5-methylpyrimidin-2-yl)phenyl)bicyclo[1.1.1]pentane-1-carboxamide] has a pEC50 of 7.51. Work on `CC(C)(C)c1nc(C23CCC(CN(C(=O)C45CC(F)(C4)C5)c4cccc(-c5ccc(OC(F)F)cn5)c4)(CC2)CC3)no1` [Example 455, N-((4-(5-(tert-butyl)-1,2,4-oxadiazol-3-yl)bicyclo[2.2.2]octan-1-yl)methyl)-N-(3-(5-(difluoromethoxy)pyridin-2-yl)phenyl)-3-fluorobicyclo[1.1.1]pentane-1-carboxamide] yielded a pEC50 of 7.77. For `CCc1ccc(-c2cccc(N(CC34CCC(c5noc(C(C)(C)C)n5)(CC3)CC4)C(=O)C34CC(F)(C3)C4)c2)cc1` [Example 456, N-((4-(5-(tert-butyl)-1,2,4-oxadiazol-3-yl)bicyclo[2.2.2]octan-1-yl)methyl)-N-(4′-ethyl-[1,1′-biphenyl]-3-yl)-3-fluorobicyclo[1.1.1]pentane-1-carboxamide], the pEC50 was 6.97. For `CC(C)(C)c1nc(C23CCC(CN(C(=O)C45CC(F)(C4)C5)c4cccc(-c5ccc6c(c5)OC(F)(F)O6)c4)(CC2)CC3)no1` [Example 457, N-((4-(5-(tert-butyl)-1,2,4-oxadiazol-3-yl)bicyclo[2.2.2]octan-1-yl)methyl)-N-(3-(2,2-difluorobenzo[d][1,3]dioxol-5-yl)phenyl)-3-fluorobicyclo[1.1.1]pentane-1-carboxamide], the pEC50 was 6.84. In the case of `CC(C)(C)c1nc(C23CCC(CN(C(=O)C45CC(F)(C4)C5)c4cccc(-c5cnc6nc(C7CC7)sc6c5)c4)(CC2)CC3)no1` [Example 458, N-((4-(5-(tert-butyl)-1,2,4-oxadiazol-3-yl)bicyclo[2.2.2]octan-1-yl)methyl)-N-(3-(2-cyclopropylthiazolo[4,5-b]pyridin-6-yl)phenyl)-3-fluorobicyclo[1.1.1]pentane-1-carboxamide], the pEC50 was 6.60. `CCOc1ncc(-c2cccc(N(CC34CCC(c5noc(C(F)F)n5)(CC3)CC4)C(=O)C34CC(F)(C3)C4)c2)cn1` [Example 459, N-((4-(5-(difluoromethyl)-1,2,4-oxadiazol-3-yl)bicyclo[2.2.2]octan-1-yl)methyl)-N-(3-(2-ethoxypyrimidin-5-yl)phenyl)-3-fluorobicyclo[1.1.1]pentane-1-carboxamide] showed a pEC50 of 6.72. With `O=C(N(CC12CCC(c3nc(C(F)F)no3)(CC1)CC2)c1cccc(-c2cnc(C3CC3)nc2)c1)C12CC(F)(C1)C2` [Example 466, N-(3-(2-cyclopropylpyrimidin-5-yl)phenyl)-N-((4-(3-(difluoromethyl)-1,2,4-oxadiazol-5-yl)bicyclo[2.2.2]octan-1-yl)methyl)-3-fluorobicyclo[1.1.1]pentane-1-carboxamide] the pEC50 was 6.46.
